{"source": "paper PMC2663005", "about": "(Bioorganic & medicinal chemistry, 2009)", "key": {"[1]": {"molecular_target": "T1, S. aureus SrtAΔN24 (Staphylococcus aureus, UniProt Q2FV99)", "assay": "biochemical", "type": "biochemical", "conditions": "for Hill Coefficient: fit of fractional activity vs inhibitor concentration"}, "[2]": {"molecular_target": "T1, S. aureus SrtAΔN24", "assay": "HPLC-based SrtA activity assay at fixed inhibitor concentrations", "type": "biochemical", "conditions": "read-out: percent inhibition (%I)"}, "[3]": {"molecular_target": "SrtA Cys184 (Staphylococcus aureus, UniProt Q2FV99)", "assay": "ESI-MS and MS/MS of trypsin-digested inhibitor-treated SrtA", "type": "binding", "conditions": "SrtA incubated with compound, SDS-PAGE, trypsin digest"}}, "note": "pIC50: −log10 of the molar value."}
{"compound": "C=CS(=O)(=O)[C@H]1C[C@@](CCC(=O)OC)(C(=O)OC)N[C@H]1c1cccnc1", "note": "(relative stereo) [Compound 2l, Methyl (2S*,4S*,5S*)-4-ethenesulfonyl-2-(2-methoxycarbonylethyl)-5-pyridin-3-yl-pyrrolidine-2-carboxylate]", "values": [{"measurement": "Hill Coefficient", "setting": "[1]", "value": "1.40 ± 0.33"}]}
{"compound": "C=CS(=O)(=O)[C@H]1C[C@]2(C(=O)OC)CCC(=O)N2[C@H]1c1ccc(OC)c(OC)c1", "note": "(relative stereo) [Compound 3k, Methyl (2S*,3S*,7aS*)-3-(3,4-dimethoxyphenyl)-2-ethenesulfonyl-5-oxotetrahydropyrrolizine-7a-carboxylate]", "values": [{"measurement": "Hill Coefficient", "setting": "[1]", "value": "1.39 ± 0.28"}]}
{"compound": "Cc1cn(C[C@@H]2C[C@H](C#N)[C@H](c3ccccc3)N2C)c(=O)[nH]c1=O", "note": "(relative stereo) [Compound 9, (2R*,3S*,5S*)-1-Methyl-5-(5-methyl-2,4-dioxo-3,4-dihydro-2H-pyrimidin-1-ylmethyl)-2-phenylpyrrolidine-3-carbonitrile]", "values": [{"measurement": "inhibition at 1000 µM", "setting": "[2]", "value": 6, "unit": "%"}]}
{"compound": "C=CS(=O)(=O)[C@H]1C[C@]2(C(=O)OC)CCC(=O)N2[C@H]1c1ccccc1", "note": "(relative stereo) [Compound 3j, Methyl (2S*,3S*,7aS*)-2-ethenesulfonyl-5-oxo-3-phenyltetrahydropyrrolizine-7a-carboxylate]", "values": [{"measurement": "Hill Coefficient", "setting": "[1]", "value": "1.90 ± 0.23"}]}
{"compound": "C=CS(=O)(=O)[C@H]1C[C@@](CCC(=O)OC)(C(=O)OC)N[C@H]1c1ccc(OC)c(OC)c1", "note": "(relative stereo) [Compound 2k, Methyl (2S*,4S*,5S*)-5-(3,4-dimethoxyphenyl)-4-ethenesulfonyl-2-(2-methoxycarbonylethyl)pyrrolidine-2-carboxylate]", "values": [{"measurement": "pIC50", "setting": "[1]", "value": "< 2.30"}]}
{"compound": "C=CS(=O)(=O)[C@H]1C[C@]2(C(=O)OC)CCC(=O)N2[C@H]1c1cccnc1", "note": "(relative stereo) [Compound 3l, Methyl (2S*,3S*,7aS*)-2-ethenesulfonyl-5-oxo-3-pyridin-3-yl-tetrahydropyrrolizine-7a-carboxylate]", "values": [{"measurement": "Hill Coefficient", "setting": "[1]", "value": "1.42 ± 0.14"}]}
{"compound": "C=CS(=O)(=O)C1CC(C(=O)OC)NC1c1cccc(F)c1", "note": "(stereo not shown) [Compound 2c]", "values": [{"measurement": "covalent modification of SrtA", "setting": "[3]", "value": "formation of a covalent adduct with Cys184"}]}
